Laboratory results: PubChem BioAssay AID1963839 (Molecular Pharmacology Branch, DTP, NCI, 2024)

Test system: 817829-284-R-J1-PDC complex spheroid viability
Assay: Anticancer human tumor 817829-284-R-J1-PDC patient-derived colon adenocarcinoma cell line growth inhibition [POLQ]
Settings: for IC50: curve of first compound; for viability, T/C: stronger effect = lower value
Method in brief: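 Three-cell-type spheroids modelling solid tumor plus stroma served as the readout system; POL inhibitors were tested individually and in combination, concentration ranges set by clinical Cmax where known.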

[1] = second compound 0.0316 µM, first compound 0.0316 µM
[2] = second compound 0.0316 µM, first compound 0.1 µM
[3] = second compound 0.0316 µM, first compound 0.316 µM
[4] = second compound 0.0316 µM, first compound 1 µM
[5] = second compound 0.0316 µM, first compound 3.16 µM
[6] = second compound 0.0316 µM, first compound 10 µM
[7] = second compound 0.1 µM, first compound 0.0316 µM
[8] = second compound 0.1 µM, first compound 0.1 µM
[9] = second compound 0.1 µM, first compound 0.316 µM
[10] = second compound 0.1 µM, first compound 1 µM
[11] = second compound 0.1 µM, first compound 3.16 µM
[12] = second compound 0.1 µM, first compound 10 µM
[13] = second compound 0.316 µM, first compound 0.0316 µM
[14] = second compound 0.316 µM, first compound 0.1 µM
[15] = second compound 0.316 µM, first compound 0.316 µM
[16] = second compound 0.316 µM, first compound 1 µM
[17] = second compound 0.316 µM, first compound 3.16 µM
[18] = second compound 0.316 µM, first compound 10 µM
[19] = second compound 1 µM, first compound 0.0316 µM
[20] = second compound 1 µM, first compound 0.1 µM
[21] = second compound 1 µM, first compound 0.316 µM
[22] = second compound 1 µM, first compound 1 µM
[23] = second compound 1 µM, first compound 3.16 µM
[24] = second compound 1 µM, first compound 10 µM
[25] = second compound 3.16 µM, first compound 0.0316 µM
[26] = second compound 3.16 µM, first compound 0.1 µM
[27] = second compound 3.16 µM, first compound 0.316 µM
[28] = second compound 3.16 µM, first compound 1 µM
[29] = second compound 3.16 µM, first compound 3.16 µM
[30] = second compound 3.16 µM, first compound 10 µM
[31] = second compound 10 µM, first compound 0.0316 µM
[32] = second compound 10 µM, first compound 0.1 µM
[33] = second compound 10 µM, first compound 0.316 µM
[34] = second compound 10 µM, first compound 1 µM
[35] = second compound 10 µM, first compound 3.16 µM
[36] = second compound 10 µM, first compound 10 µM
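Also: spheroids exposed to compounds for 7 days.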
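For viability, T/C in this document: 100% = DMSO vehicle-treated spheroids.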

Structure (SMILES): C#Cc1c(F)ccc2cc(O)cc(-c3ncc4c(N5CC6CCC(C5)N6)nc(OCC56CCCN5CC(F)C6)nc4c3F)c12 (stereo not given) + Cc1cccc(N(C)C(=O)C2C(O)CCN2c2nc(C)cc(C(F)(F)F)c2C#N)c1
- IC50 (second compound 0.0316 µM): > 10 µM
- IC50 (second compound 0.1 µM): > 10 µM
- IC50 (second compound 0.316 µM): > 10 µM
- IC50 (second compound 1 µM): 7.2 µM
- IC50 (second compound 3.16 µM): > 10 µM
- IC50 (second compound 10 µM): 8.06 µM
- viability, T/C [1]: 104%
- viability, T/C [2]: 112%
- viability, T/C [3]: 85.5%
- viability, T/C [4]: 85.9%
- viability, T/C [5]: 112%
- viability, T/C [6]: 60.9%
- viability, T/C [7]: 93%
- viability, T/C [8]: 75.6%
- viability, T/C [9]: 88%
- viability, T/C [10]: 95.1%
- viability, T/C [11]: 136%
- viability, T/C [12]: 76%
- viability, T/C [13]: 62.5%
- viability, T/C [14]: 75.8%
- viability, T/C [15]: 95%
- viability, T/C [16]: 97.9%
- viability, T/C [17]: 79.7%
- viability, T/C [18]: 63.5%
- viability, T/C [19]: 94.7%
- viability, T/C [20]: 86.9%
- viability, T/C [21]: 93%
- viability, T/C [22]: 118%
- viability, T/C [23]: 97%
- viability, T/C [24]: 31.2%
- viability, T/C [25]: 108%
- viability, T/C [26]: 82.3%
- viability, T/C [27]: 86.1%
- viability, T/C [28]: 87%
- viability, T/C [29]: 97.3%
- viability, T/C [30]: 89.4%
- viability, T/C [31]: 99.7%
- viability, T/C [32]: 108%
- viability, T/C [33]: 90.2%
- viability, T/C [34]: 96.4%
- viability, T/C [35]: 89.3%
- viability, T/C [36]: 40.7%

Structure (SMILES): CCc1cc2c(N3CCc4c(cc(Cn5ccnc5)cc4-c4cn(C)nc4C(F)(F)F)C3=O)cc(C)nc2c(OC)n1 + Cc1cccc(N(C)C(=O)C2C(O)CCN2c2nc(C)cc(C(F)(F)F)c2C#N)c1
- IC50 (second compound 0.0316 µM): 1.78 µM
- IC50 (second compound 0.1 µM): 2.49 µM
- IC50 (second compound 0.316 µM): 1.18 µM
- IC50 (second compound 1 µM): 1.63 µM
- IC50 (second compound 3.16 µM): 2.68 µM
- IC50 (second compound 10 µM): 1.36 µM
- viability, T/C [1]: 85.3%
- viability, T/C [2]: 65.6%
- viability, T/C [3]: 68.5%
- viability, T/C [4]: 59.6%
- viability, T/C [5]: 41.8%
- viability, T/C [6]: 32.9%
- viability, T/C [7]: 88.9%
- viability, T/C [8]: 77.5%
- viability, T/C [9]: 62.2%
- viability, T/C [10]: 73.8%
- viability, T/C [11]: 43.6%
- viability, T/C [12]: 28.8%
- viability, T/C [13]: 72%
- viability, T/C [14]: 83.9%
- viability, T/C [15]: 94%
- viability, T/C [16]: 53.1%
- viability, T/C [17]: 38.8%
- viability, T/C [18]: 22.9%
- viability, T/C [19]: 84.1%
- viability, T/C [20]: 64.3%
- viability, T/C [21]: 81.8%
- viability, T/C [22]: 52.9%
- viability, T/C [23]: 43.3%
- viability, T/C [24]: 30.2%
- viability, T/C [25]: 79.4%
- viability, T/C [26]: 87.9%
- viability, T/C [27]: 66.6%
- viability, T/C [28]: 59.3%
- viability, T/C [29]: 51%
- viability, T/C [30]: 33.8%
- viability, T/C [31]: 71.4%
- viability, T/C [32]: 78.2%
- viability, T/C [33]: 66.2%
- viability, T/C [34]: 56.9%
- viability, T/C [35]: 34.3%
- viability, T/C [36]: 26.7%

Structure (SMILES): COc1cc2cc(C(=O)CCC(=O)O)sc2cc1OC + Cc1cccc(N(C)C(=O)C2C(O)CCN2c2nc(C)cc(C(F)(F)F)c2C#N)c1
- IC50 (second compound 0.0316 µM): > 10 µM
- IC50 (second compound 0.1 µM): > 10 µM
- IC50 (second compound 0.316 µM): > 10 µM
- IC50 (second compound 1 µM): > 10 µM
- IC50 (second compound 3.16 µM): > 10 µM
- IC50 (second compound 10 µM): > 10 µM
- viability, T/C [1]: 100%
- viability, T/C [2]: 93.1%
- viability, T/C [3]: 89%
- viability, T/C [4]: 88.5%
- viability, T/C [5]: 114%
- viability, T/C [6]: 96.2%
- viability, T/C [7]: 113%
- viability, T/C [8]: 97%
- viability, T/C [9]: 99.5%
- viability, T/C [10]: 105%
- viability, T/C [11]: 98.7%
- viability, T/C [12]: 102%
- viability, T/C [13]: 101%
- viability, T/C [14]: 90.5%
- viability, T/C [15]: 99%
- viability, T/C [16]: 108%
- viability, T/C [17]: 107%
- viability, T/C [18]: 108%
- viability, T/C [19]: 102%
- viability, T/C [20]: 88.2%
- viability, T/C [21]: 96.7%
- viability, T/C [22]: 116%
- viability, T/C [23]: 105%
- viability, T/C [24]: 104%
- viability, T/C [25]: 91.1%
- viability, T/C [26]: 111%
- viability, T/C [27]: 117%
- viability, T/C [28]: 93.8%
- viability, T/C [29]: 100%
- viability, T/C [30]: 96.9%
- viability, T/C [31]: 87.7%
- viability, T/C [32]: 86.8%
- viability, T/C [33]: 112%
- viability, T/C [34]: 89.6%
- viability, T/C [35]: 109%
- viability, T/C [36]: 89.6%

Structure (SMILES): O=C(Nc1ccc(O)c(NS(=O)(=O)c2ccc(F)cc2)c1)c1ccc(-c2ccccc2)cc1 + Cc1cccc(N(C)C(=O)C2C(O)CCN2c2nc(C)cc(C(F)(F)F)c2C#N)c1
- IC50 (second compound 0.0316 µM): 8.08 µM
- IC50 (second compound 0.1 µM): 7.5 µM
- IC50 (second compound 0.316 µM): 8.91 µM
- IC50 (second compound 1 µM): 6.36 µM
- IC50 (second compound 3.16 µM): 5.44 µM
- IC50 (second compound 10 µM): 5.2 µM
- viability, T/C [1]: 110%
- viability, T/C [2]: 106%
- viability, T/C [3]: 113%
- viability, T/C [4]: 78.7%
- viability, T/C [5]: 91.2%
- viability, T/C [6]: 41%
- viability, T/C [7]: 98.8%
- viability, T/C [8]: 79.1%
- viability, T/C [9]: 106%
- viability, T/C [10]: 90.5%
- viability, T/C [11]: 72.6%
- viability, T/C [12]: 42.5%
- viability, T/C [13]: 96.3%
- viability, T/C [14]: 93.2%
- viability, T/C [15]: 95.9%
- viability, T/C [16]: 87.9%
- viability, T/C [17]: 87.6%
- viability, T/C [18]: 45.5%
- viability, T/C [19]: 80.6%
- viability, T/C [20]: 90.5%
- viability, T/C [21]: 92.4%
- viability, T/C [22]: 94.7%
- viability, T/C [23]: 64.8%
- viability, T/C [24]: 40.4%
- viability, T/C [25]: 95.6%
- viability, T/C [26]: 101%
- viability, T/C [27]: 102%
- viability, T/C [28]: 98.9%
- viability, T/C [29]: 60.8%
- viability, T/C [30]: 37.9%
- viability, T/C [31]: 98.4%
- viability, T/C [32]: 84.5%
- viability, T/C [33]: 92.5%
- viability, T/C [34]: 83.7%
- viability, T/C [35]: 65%
- viability, T/C [36]: 30%

Structure (SMILES): COc1cccc2c1C(=O)c1c(O)c3c(c(O)c1C2=O)CC(O)(C(=O)CO)CC3OC1CC(N)C(O)C(C)O1 (stereo not given) + Nc1ccc(C#CCN(C(=O)Cc2ncc(C(F)(F)F)cc2C(F)(F)F)c2ccc(F)cc2)nn1
- IC50 (second compound 0.0316 µM): < 0.0316 µM
- IC50 (second compound 0.1 µM): < 0.0316 µM
- IC50 (second compound 0.316 µM): < 0.0316 µM
- IC50 (second compound 1 µM): < 0.0316 µM
- IC50 (second compound 3.16 µM): < 0.0316 µM
- IC50 (second compound 10 µM): < 0.0316 µM
- viability, T/C [1]: 21.8%
- viability, T/C [2]: 21.2%
- viability, T/C [3]: 5.37%
- viability, T/C [4]: 0.34%
- viability, T/C [5]: 0.13%
- viability, T/C [6]: 0.41%
- viability, T/C [7]: 18.1%
- viability, T/C [8]: 21.5%
- viability, T/C [9]: 6.2%
- viability, T/C [10]: 0.54%
- viability, T/C [11]: 0.2%
- viability, T/C [12]: 0.48%
- viability, T/C [13]: 21.1%
- viability, T/C [14]: 17.4%
- viability, T/C [15]: 6.38%
- viability, T/C [16]: 0.38%
- viability, T/C [17]: 0.13%
- viability, T/C [18]: 0.65%
- viability, T/C [19]: 21.6%
- viability, T/C [20]: 22.7%
- viability, T/C [21]: 5.1%
- viability, T/C [22]: 0.6%
- viability, T/C [23]: 0.16%
- viability, T/C [24]: 0.62%
- viability, T/C [25]: 17.3%
- viability, T/C [26]: 15.6%
- viability, T/C [27]: 5.54%
- viability, T/C [28]: 0.25%
- viability, T/C [29]: 0.19%
- viability, T/C [30]: 0.51%
- viability, T/C [31]: 18.4%
- viability, T/C [32]: 21.1%
- viability, T/C [33]: 4.32%
- viability, T/C [34]: 0.29%
- viability, T/C [35]: 0.26%
- viability, T/C [36]: 0.52%
